Laboratory results published in patent publication US20060157667A1, “Method and compositions for controlling release of organic compositions” (Board of Trustees of Michigan State University, priority 2005, published 2006).
Where “and” joins values, the source holds several entries; their conditions need not be identical. Equal entries are not always repeated.

Assay: Pesticide sorption from water by K- and Ca-SWy-2 smectite clay, batch equilibration method
Assay type: physicochemical
Conditions: for pesticide distribution coefficient for sorption by homoionic K-SWy-2: relative concentration of 0.1 (aqueous equilibrium concentration/aqueous solubility), 0.25 M KCl solution; for change in sorption by sorbents derived from Ca-SWy-2 as fK increased from zero to 0.71: Ca-SWy-2 exchanged with KCl; for sorption by K-SWy-2 relative to sorption by Ca-SWy-2: relative aqueous concentration of 0.1
Method: Pesticide sorption from water solution by K— and Ca—SWy-2 mixed with different ratios of aqueous KCl to CaCl2 (kept at a fixed ionic strength of 0.25 M) were measured using a batch equilibration method. A series of initial pesticide concentrations were prepared in the following electrolyte solutions: 0.25 M KCl, 0.24 M KCl/0.003 M CaCl2; 0.20 M KCl/0.016 M CaCl2; 0.15 M KCl/0.033 M CaCl2; 0.10 M KCl/0.05 M CaCl2; 0.05 M KCl/0.067 M CaCl2; 0.01 M KCl/0.08 M CaCl2; and 0.083 M CaCl2. Clays were weighed into glass centrifuge tubes, solute solutions over a range of initial pesticide concentrations were added, and the tubes were closed with Teflon-lined screw caps. The tubes were then shaken reciprocally at 40 rpm for 24 h at room temperature (23±2° C.), followed by centrifugation at 2600 g for 30 min. Previous studies have shown that equilibrium was reached within this period of time (Sheng, G., et al., J. Agri. Food Chem. 49, 2899-2907 (2001); and Sheng, G., et al., Clays Clay Miner. 50, 25-34 (2002)). Supernatants were sampled and subject to analysis for pesticide concentrations using a Perkin-Elmer High Performance Liquid Chromatography (HPLC) system consisting of a Binary 250 LC pump, a Series 200 autosampler and a Series 200 UV-Visible detector. The optimal wavelength was set at 238 nm for dichlobenil, 250 nm for monuron and 248 nm for biphenyl. An Alltech platinum extended polar selectivity C18 column (15 cm by 4.6 mm i.d.) was used for dichlobenil and monuron, and an Alltech adsobosphere C18 column (25 cm by 4.6 mm i.d.) was used for biphenyl. The mobile phase composition was a mixture of methanol and water, and was optimized for each pesticide. Controls consisted of identical pesticide solutions in the corresponding electrolytes, but with no clay present. No changes in solute concentrations were detected in the tubes devoid of clay within the experimental period; therefore, solute mass lost in the supernatant from clay slurries was assumed to be sorbed by clay. The amount of pesticide sorbed was calculated from the difference between the initial and equilibrium solute concentration in aqueous solution.
The actual population of exchangeable K^+ and Ca^2+ associated with the clay was measured in a separate experiment using the BaCl2 extraction method (Rhoades, J. D., Method of Soil Analysis part 2: Chemical and Microbiological Properties; 2nd ed., American Society of Agronomy: Madison, Wis. 149-158 (1982)). The same amounts of clays and electrolyte solutions used in the sorption studies were added into glass centrifuge tubes, the tubes were shaken for 24 h at room temperature then centrifuged at 2600 g for 30 min. Aqueous supernatants were removed, diluted and analyzed by a Perkin-Elmer 3110 atomic absorption spectrophotometer (AAS). The mass of K^+ and Ca^2+ remaining in the residual supernatant was accounted for by assuming their concentrations to be the same as that measured in the bulk supernatant; residual supernatant that could not be removed was determined gravimetrically. The clay pellets were extracted three times using 0.1 M BaCl2, then washed three times with Milli-Q water. The supernatants from the water washing were combined with the supernatants from the BaCl2 extraction step, diluted and analyzed by AAS. The K^+ and Ca^2+ concentrations were measured using the external standards prepared with the matching matrix background of extraction reagents.
We compared sorption coefficients for clays derived from homoionic Ca—SWy-2 vs. those derived from homoionic K—SWy-2 after the homoionic clays had been treated with different amounts of CaCl2/KCl aqueous solutions. […] Replacement of K^+ from K—SWy-2 by Ca^2+ (from fK=1 to 0.66) manifested gradually diminishing sorption of dichlobenil to ˜40% of that by homoionic K—SWy-2.

[1] = relative aqueous concentration 0.1

SMILES | sorption across variation of K+ fractions on minerals from zero to one (relative concentration 0.1, FIG. 4) | pesticide distribution coefficient for sorption by homoionic K-SWy-2 [L/kg] | sorption enhancement by Ca-SWy-2 derived sorbents at fK as high as 0.71 (Ca2+ replaced by K+, sorption isotherms, FIG. 2) | change in sorption by sorbents derived from Ca-SWy-2 as fK increased from zero to 0.71 [1] | change in sorption when K-SWy-2 underwent exchange with CaCl2, fK from 1 to 0.81 [1] | sorption by K-SWy-2 relative to sorption by Ca-SWy-2 | sorption relative to that by homoionic K-SWy-2 after replacement of K+ by Ca2+ (K-SWy-2 derived clay, fK from 1 to 0.66, relative concentration 0.1) [%] | sorption by clay derived from K-SWy-2 (fK=0.66) relative to clay derived from Ca-SWy-2 (fK=0.71) (comparable fK, different starting clay)
c1ccc(-c2ccccc2)cc1 [Biphenyl, 1,1′-biphenyl] | remained nearly constant | 6.4 | – | – | – | – | – | –
CN(C)C(=O)Nc1ccc(Cl)cc1 [Monuron, N′-(4-chlorophenyl)-N,N-dimethylurea] | – | 27 | ca. 205 | No apparent enhancement | reduced by about half | ~4 times higher | – | –
N#Cc1c(Cl)cccc1Cl [Dichlobenil, 2,6-dichlorobenzonitrile] | – | 580 | – | increased by approximately four times | – | approximately 75 times higher | ~40 | ~10 times and 8 times
